Data set [1] can be described thus: CC50 assay (CellTiter-Glo) in Huh-7 HCV replicon cells. The class given is cell-based, human. Particulars: human, 3 days incubation, CellTiter-Glo readout. As for the experimental part: (§1) The anti-HCV activity of the pyrido[3,2-d]pyrimidine derivatives of this invention was tested in a human hepatoma Huh-7 cell line harboring a HCV replicon. The assay comprised the following steps:
(§2) Step 1: Compound Preparation and Serial Dilution
(§3) • 1. for water soluble pyrido[3,2-d]pyrimidine derivatives, a volume of 500 μL of solution in cell media (DMEM, 10% FBS, P/S, L-Glutamine) was prepared with a concentration being twice the concentration of the starting final serial dilution concentration. A volume of 150 μL of the solution was added to the pre-specified wells in column 1 of a 96-well cell culture plate (PerkinElmer, white plate, cat. #6005181, for EC50 assay; black plate, cat. #6005182 for CC50 assay). The rest of the plate, columns 2-12, was filled with 100 μL of cell media. The plate was then placed on a Precision 2000 Workstation to start the serial dilution. Compounds were diluted three times each step from column 1 to column 10. Column 11 was used as a blank control (no compound added). • 2. for pyrido[3,2-d]pyrimidine derivatives requiring DMSO to dissolve, serial dilution is performed in 50% DMSO in a 384-well plate. A solution containing a compound at 100-fold concentration of the starting final serial dilution concentration was prepared in 50% DMSO and added to the pre-specified wells in column 1 of a polypropylene 384-well plate. The plate was then placed on a Precision 2000 Workstation to start the serial dilution. After the serial dilution, a volume of 2 μL of the solution was transferred from the 384-well plate to a 96-well cell culture plate containing 100 μL of cell media on a Biomek FX Workstation. The DMSO concentration in the final assay condition was 0.5% after cells are added to the plate and the total volume in each well is brought to 200 μL.
(§4) Step 2: to each well of the serial dilution plate prepared above, 100 μL of cell media containing 6000 suspended Huh-7 HCV replicon cells was added with a Multidrop workstation. The plates were incubated for 3 days at 37° C. with 5% CO2.
(§5) • a) for the EC50 assay, the media in a 96-well cell culture plate was aspirated with a Biotek EL405 plate-washer. A volume of 200 μL of a solution containing a 1:1 mixture of cell-lysis buffer (Promega, Luciferase Cell Culture Lysis 5× Reagent, cat. #E1531) and luciferase substrate solution (Promega, Luciferase Assay, cat.#E4550) was added to each well of the plate with Multidrop. The plate was incubated for 30 minutes at room temperature before the luminescence signal was measured with a TopCount plate-reader. • b) for the CC50 assay, a volume of 100 μL of pre-mixed CellTiter-Glo (Promega, cat.#G7572) solution is added directly to the cell culture in each well of the plate and the luminescence signal is measured with a TopCount plate-reader after 10 minutes of incubation at room temperature.
(In general: Cellular ATP, detected with luciferase, serves as a proxy for viable cell number.)

The subject of data set [2] is HCV replicon in human hepatoma Huh-7 cell line. The experiment in a line: Anti-HCV replicon assay (EC50, luciferase). Particulars: Hepatitis C virus, Huh-7, 72 h. Format: cell-based. On the procedure:
as §1, §2, §3, §4, §5
For orientation: In antiviral work, replicon cells carry a viral genome segment that copies itself.

What is called CC50 is the concentration giving 50% cytotoxicity. Read a high CC50 as lower toxicity to the cells. In general, EC50 refers to the concentration needed to bring the measured effect to its halfway point.

As for `Fc1ccc(-c2ccc3nc(NCC(F)(F)F)nc(O[C@H]4CCOC4)c3n2)cc1` [Example 20, [6-(4-Fluoro-phenyl)-4-(tetrahydro-furan-3-yloxy)-pyrido[3,2-d]pyrimidin-2-yl]-(2,2,2-trifluoro-ethyl)-amine], in data set [1], the CC50 at 3 days is > 25 µM. The EC50 in data set [2] was < 0.1 µM.

In the case of `CCOc1nc(NCC(F)(F)F)nc2ccc(-c3ccc(F)cc3)nc12` [Example 21, [4-Ethoxy-6-(4-fluoro-phenyl)-pyrido[3,2-d]pyrimidin-2-yl]-(2,2,2-trifluoro-ethyl)-amine], in data set [1], the CC50 at 3 days was 5 to 25 µM. Further, the EC50 in data set [2] is < 0.1 µM.

`Fc1ccc(CNc2nc(O[C@H]3CCOC3)c3nc(-c4ccc(F)cc4)ccc3n2)cc1` [Example 23, (4-Fluoro-benzyl)-[6-(4-fluoro-phenyl)-4-(tetrahydro-furan-3-yloxy)-pyrido[3,2-d]pyrimidin-2-yl]amine] returned a CC50 at 3 days in data set [1] of 5 to 25 µM. Further, the EC50 in data set [2] is < 0.1 µM.

Molecule `NC(=O)CCNc1nc(NCc2ccc(F)cc2)nc2ccc(-c3ccc(F)cc3)nc12` [Example 24, 3-[2-(4-Fluoro-benzylamino)-6-(4-fluoro-phenyl)-pyrido[3,2-d]pyrimidin-4-ylamino]-propionamide] showed a CC50 at 3 days in data set [1] of 5 to 25 µM. Also, the EC50 in data set [2] is < 0.1 µM.

Turning to `CC(C)(O)CNc1nc(NCc2ccc(F)cc2)nc2ccc(-c3ccc(F)cc3)nc12` [Example 25, 1-[2-(4-Fluoro-benzylamino)-6-(4-fluoro-phenyl)-pyrido[3,2-d]pyrimidin-4-ylamino]-2-methyl-propan-2-ol], the CC50 at 3 days in data set [1] was < 5 µM. In data set [2], the EC50 is < 0.1 µM.

With `COc1nc(NCc2ccc(F)cc2)nc2ccc(-c3ccc(F)cc3)nc12` [Example 26, (4-Fluoro-benzyl)-[6-(4-fluoro-phenyl)-4-methoxy-pyrido[3,2-d]pyrimidin-2-yl]-amine], the cytotoxic concentration (CC50) at 3 days in data set [1] was > 25 µM. For the same molecule, the EC50 in data set [2] was < 0.1 µM.

In the case of `CS(=O)(=O)C1CCN(c2nc(NCc3ccc(F)cc3)nc3ccc(-c4ccc(F)cc4)nc23)C1` (centres unmarked) [Example 27, (4-Fluoro-benzyl)-[6-(4-fluoro-phenyl)-4-(3-methanesulfonyl-pyrrolidin-1-yl)-pyrido[3,2-d]pyrimidin-2-yl]-amine], the CC50 at 3 days in data set [1] is < 5 µM. The 50% effective concentration (EC50) in data set [2] was < 0.1 µM.

Take `CN(CCS(C)(=O)=O)c1nc(NCc2ccc(F)cc2)nc2ccc(-c3ccc(F)cc3)nc12` [Example 28, N2-(4-Fluoro-benzyl)-6-(4-fluoro-phenyl)-N4-(2-methanesulfonyl-ethyl)-N4-methyl-pyrido[3,2-d]pyrimidine-2,4-diamine]: in data set [1], the CC50 at 3 days is > 25 µM. Also, the EC50 in data set [2] was < 0.1 µM.

With `CC(C)N1CCC(Nc2nc(NCc3ccc(F)cc3)nc3ccc(-c4ccc(F)cc4)nc23)CC1` [Example 29, N2-(4-Fluoro-benzyl)-6-(4-fluoro-phenyl)-N4-(1-isopropyl-piperidin-4-yl)-pyrido[3,2-d]pyrimidine-2,4-diamine], the CC50 at 3 days in data set [1] was < 5 µM. Further, the EC50 in data set [2] is < 0.1 µM.

For the molecule `CCNc1nc(NCc2ccc(F)cc2)nc2ccc(-c3ccc(F)cc3)nc12` [Example 30, N4-Ethyl-N2-(4-fluoro-benzyl)-6-(4-fluoro-phenyl)-pyrido[3,2-d]pyrimidine-2,4-diamine], the CC50 at 3 days in data set [1] is 5 to 25 µM. Further, the EC50 in data set [2] is < 0.1 µM.

On to `Fc1ccc(CNc2nc(NCc3cccnc3)c3nc(-c4ccc(F)cc4)ccc3n2)cc1` [Example 31, N2-(4-Fluoro-benzyl)-6-(4-fluoro-phenyl)-N4-pyridin-3-ylmethyl-pyrido[3,2-d]pyrimidine-2,4-diamine], for which, in data set [1], the cytotoxic concentration (CC50) at 3 days lay in the range of 5 to 25 µM. In addition, the EC50 in data set [2] is < 0.1 µM.

Take `Fc1ccc(CNc2nc(NCCN3CCOCC3)c3nc(-c4ccc(F)cc4)ccc3n2)cc1` [Example 32, N2-(4-Fluoro-benzyl)-6-(4-fluoro-phenyl)-N4-(2-morpholin-4-yl-ethyl)-pyrido[3,2-d]pyrimidine-2,4-diamine]: in data set [1], the CC50 at 3 days lay within 5 to 25 µM. Also, the EC50 in data set [2] was < 0.1 µM.

Take `Fc1ccc(CNc2nc(NCC(F)(F)F)c3nc(-c4ccc(F)cc4)ccc3n2)cc1` [Example 33, N2-(4-Fluoro-benzyl)-6-(4-fluoro-phenyl)-N4-(2,2,2-trifluoro-ethyl)-pyrido[3,2-d]pyrimidine-2,4-diamine]: the CC50 at 3 days in data set [1] lay in the range of 5 to 25 µM. Moreover, the EC50 in data set [2] was < 0.1 µM.

For the molecule `COCCNc1nc(NCc2ccc(F)cc2)nc2ccc(-c3ccc(F)cc3)nc12` [Example 34, N2-(4-Fluoro-benzyl)-6-(4-fluoro-phenyl)-N4-(2-methoxy-ethyl)-pyrido[3,2-d]pyrimidine-2,4-diamine], in data set [1], the CC50 at 3 days is < 5 µM. The EC50 in data set [2] is < 0.1 µM.

`CCOc1nc(NCc2ccc(F)c(F)c2)nc2ccc(-c3ccc(F)cc3)nc12` [Example 35, (3,4-Difluoro-benzyl)-[4-ethoxy-6-(4-fluoro-phenyl)-pyrido[3,2-d]pyrimidin-2-yl]-amine] came in with a CC50 at 3 days in data set [1] of 5 to 25 µM. For the same molecule, the EC50 in data set [2] was < 0.1 µM.

With `CCOc1nc(NCc2c(F)cc(OC)cc2F)nc2ccc(-c3ccc(F)cc3)nc12` [Example 36, (2,6-Difluoro-4-methoxy-benzyl)-[4-ethoxy-6-(4-fluoro-phenyl)-pyrido[3,2-d]pyrimidin-2-yl]-amine], the CC50 at 3 days in data set [1] lay within 5 to 25 µM. Further, the EC50 in data set [2] is < 0.1 µM.

As to `CCOc1nc(NCc2c(F)cc(Cl)cc2F)nc2ccc(-c3ccc(F)cc3)nc12` [Example 37, (4-Chloro-2,6-difluoro-benzyl)-[4-ethoxy-6-(4-fluoro-phenyl)-pyrido[3,2-d]pyrimidin-2-yl]-amine], the CC50 at 3 days in data set [1] was 5 to 25 µM. The 50% effective concentration (EC50) in data set [2] was < 0.1 µM.

For the molecule `CCOc1nc(NCc2ccc(Cl)cc2F)nc2ccc(-c3ccc(F)cc3)nc12` [Example 38, (4-Chloro-2-fluoro-benzyl)-[4-ethoxy-6-(4-fluoro-phenyl)-pyrido[3,2-d]pyrimidin-2-yl]-amine], in data set [1], the CC50 at 3 days was in the range of 5 to 25 µM. Moreover, in data set [2], the EC50 is < 0.1 µM.

In data set [1], `CCOc1nc(NCc2c(F)cc(F)cc2F)nc2ccc(-c3ccc(F)cc3)nc12` [Example 39, (4-Ethoxy-6-(4-fluoro-phenyl)-pyrido[3,2-d]pyrimidin-2-yl]-(2,4,6-trifluoro-benzyl)-amine] showed a CC50 at 3 days of 5 to 25 µM. The EC50 in data set [2] was < 0.1 µM.

`CCOc1nc(NCc2ccc(Cl)c(F)c2)nc2ccc(-c3ccc(F)cc3)nc12` [Example 40, (4-Chloro-3-fluoro-benzyl)-[4-ethoxy-6-(4-fluoro-phenyl)-pyrido[3,2-d]pyrimidin-2-yl]-amine] displayed a CC50 at 3 days in data set [1] of 5 to 25 µM. In data set [2], the EC50 was < 0.1 µM.

For `CCOc1nc(NCc2ccc(F)c(F)c2F)nc2ccc(-c3ccc(F)cc3)nc12` [Example 41, [4-Ethoxy-6-(4-fluoro-phenyl)-pyrido[3,2-d]pyrimidin-2-yl]-(2,3,4-trifluoro-benzyl)-amine], the CC50 at 3 days in data set [1] lay within 5 to 25 µM. For the same molecule, the EC50 in data set [2] was < 0.1 µM.

For the molecule `CCOc1nc(NCc2ccc(F)c(Cl)c2)nc2ccc(-c3ccc(F)cc3)nc12` [Example 42, (3-Chloro-4-fluoro-benzyl)-[4-ethoxy-6-(4-fluoro-phenyl)-pyrido[3,2-d]pyrimidin-2-yl]-amine], the CC50 at 3 days in data set [1] is 5 to 25 µM. The EC50 in data set [2] was < 0.1 µM.

On to `CCOc1nc(NCc2ccc(F)cc2Cl)nc2ccc(-c3ccc(F)cc3)nc12` [Example 43, (2-Chloro-4-fluoro-benzyl)-[4-ethoxy-6-(4-fluoro-phenyl)-pyrido[3,2-d]pyrimidin-2-yl]-amine], for which the CC50 at 3 days in data set [1] is > 25 µM. In addition, the EC50 in data set [2] is < 0.1 µM.

In turn, `CCOc1nc(NCc2ccc(C(F)(F)F)c(F)c2)nc2ccc(-c3ccc(F)cc3)nc12` [Example 44, [4-Ethoxy-6-(4-fluoro-phenyl)-pyrido[3,2-d]pyrimidin-2-yl]-(3-fluoro-4-trifluoromethyl-benzyl)-amine] yielded a CC50 at 3 days in data set [1] of 5 to 25 µM. In addition, in data set [2], the EC50 was < 0.1 µM.

As to `CCOc1nc(NCc2cc(F)cc(F)c2)nc2ccc(-c3ccc(F)cc3)nc12` [Example 45, (3,5-Difluoro-benzyl)-[4-ethoxy-6-(4-fluoro-phenyl)-pyrido[3,2-d]pyrimidin-2-yl]-amine], the CC50 at 3 days in data set [1] is 5 to 25 µM. Moreover, in data set [2], the EC50 is < 0.1 µM.

Source of the values: US8729089B2 (Gilead Sciences, Inc., priority 2006, dated 2014).
